According to US7799739B2, “Biphenylcarboxamides for controlling micro-organisms” (Bayer CropScience AG, priority 2005, dated 2010):
Blank lines part the entries; values can stand above or below the compound they belong to.

What was measured:
[1] = logP determination by HPLC on reverse-phase column (C 18), EEC Directive 79/831 Annex V.A8; type: physicochemical; conditions: reverse-phase HPLC column (C 18), pH 2.3, HPLC, 0.1% aqueous phosphoric acid/acetonitrile, 43° C.
Description: The logP values given in the Tables and Preparation Examples above are determined in accordance with EEC Directive 79/831 Annex V.A8 by HPLC (High Performance Liquid Chromatography) on a reverse-phase column (C 18). Temperature: 43° C.
The determination is carried out in the acidic range at pH 2.3 using the mobile phases 0.1% aqueous phosphoric acid and acetonitrile; linear gradient from 10% acetonitrile to 90% acetonitrile.
Calibration is carried out using unbranched alkan-2-ones (having 3 to 16 carbon atoms) with known logP values (determination of the logP values by the retention times using linear interpolation between two successive alkanones).

Venturia inaequalis = experiment: Venturia test (apple)/protective; type: in vivo; conditions: apple plants, protective spray, application rate 100 ppm, evaluation 10 days after inoculation
Description: (§1) To produce a suitable preparation of active compound, 1 part by weight of active compound is mixed with the stated amounts of solvents and emulsifier, and the concentrate is diluted with water to the desired concentration.
(§2) To test for protective activity, young plants are sprayed with the active compound preparation at the stated application rate. After the spray coating has dried on, the plants are inoculated with an aqueous conidia suspension of the apple scab pathogen Venturia inaequalis and then remain in an incubation cabin at about 20° C. and 100% relative atmospheric humidity for 1 day. The plants are then placed in a greenhouse at about 21° C. and a relative atmospheric humidity of about 90%.
(§3) Evaluation is carried out 10 days after the inoculation. 0% means an efficacy which corresponds to that of the control, whereas an efficacy of 100% means that no infection is observed.

Botrytis cinerea = experiment: Botrytis test (bean)/protective; type: in vivo; conditions: bean plants, protective spray, application rate 100 ppm, evaluation 2 days after inoculation
Description: as §1
To test for protective activity, young plants are sprayed with the active compound preparation at the stated application rate. After the spray coating has dried on, 2 small pieces of agar colonized by Botrytis cinerea are placed onto each leaf. The inoculated plants are placed in a dark chamber at about 20° C. and 100% relative atmospheric humidity.
The size of the infected areas on the leaves is evaluated 2 days after the inoculation. 0% means an efficacy which corresponds to that of the control, whereas an efficacy of 100% means that no infection is observed.

Uromyces appendiculatus = experiment: Uromyces test (bean)/protective; type: in vivo; conditions: bean plants, protective spray, application rate 100 ppm, evaluation 10 days after inoculation
Description: as §1
as §2, with “spore” for “conidia”, “bean rust” for “apple scab”, “Uromyces appendiculatus” for “Venturia inaequalis”
as §3

Puccinia recondita = experiment: Puccinia test (wheat)/protective; type: in vivo; conditions: wheat plants, protective spray, application rate 1000 ppm, evaluation 10 days after inoculation
Description: To produce a suitable preparation of active compound, 1 part by weight of active compound is mixed with the stated amounts of solvent and emulsifier, and the concentrate is diluted with water to the desired concentration.
To test for protective activity, young plants are sprayed with the active compound preparation at the stated application rate. After the spray coating has dried on, the plants are sprayed with a conidia suspension of Puccinia recondita. The plants remain in an incubation cabin at 20° C. and 100% relative atmospheric humidity for 48 hours.
The plants are then placed in a greenhouse at a temperature of about 20° C. and a relative atmospheric humidity of 80% to promote the development of rust pustules.
as §3

chromatographic logP ([1]; compounds of formula (I)): 2.64
SMILES: COC(=O)c1ccc(-c2cc(F)ccc2NC(=O)c2cn(C)nc2C(F)(F)F)cc1F [No. 1, methyl 3,5′-difluoro-2′-({[1-methyl-3-(trifluoromethyl)-1H-pyrazol-4-yl]carbonyl}amino)biphenyl-4-carboxylate]

chromatographic logP ([1]; starting materials of formula (III)): 2.73
SMILES: COC(=O)c1ccc(-c2cc(F)ccc2N)cc1F [No. 9 (III), methyl 2′-amino-3,5′-difluorobiphenyl-4-carboxylate]

SMILES: COC(=O)c1ccc(-c2cc(F)ccc2NC(=O)c2cn(C)nc2C(F)F)cc1F [drawing 30]
Efficacy in % (Venturia inaequalis): 71%

SMILES: COC(=O)c1ccc(-c2cc(F)ccc2NC(=O)c2cn(C)nc2C(F)(F)F)cc1F [drawing 31]
Efficacy in % (Botrytis cinerea): 78%

SMILES: COC(=O)c1ccc(-c2cc(F)ccc2NC(=O)c2cn(C)nc2C(F)(F)F)cc1F [drawing 32]
Efficacy in % (Uromyces appendiculatus): 93%

SMILES: COC(=O)c1ccc(-c2cc(F)ccc2NC(=O)c2cn(C)nc2C(F)F)cc1F [drawing 33]
Efficacy in % (Uromyces appendiculatus): 78%

SMILES: COC(=O)c1ccc(-c2cc(F)ccc2NC(=O)c2cn(C)nc2C(F)(F)F)cc1F [drawing 34]
Efficacy in % (Puccinia recondita): 100%

SMILES: COC(=O)c1ccc(-c2cc(F)ccc2NC(=O)c2cn(C)nc2C(F)F)cc1F [drawing 35]
Efficacy in % (Puccinia recondita): 90%
